Here are results for 36 substances from US20260325605A1, “INHIBITORS” (Zealand Pharma A/S, priority 2022, published 2026).

For assay [1], the system named is T-cell activation in rat whole blood. The assay can be described thus: Example 4: IL-17A release in thapsigargin stimulated rat whole blood. The assay is classed as cell-based, rat (Lewis or Sprague-Dawley). As to conditions: 24 Hr, at least 2 replicates, unit inferred, read-out: IC50 (inhibition of IL-17A release). An excerpt: Rat whole blood was used to assess the potency of Kv1.3 inhibitor peptides on T-cell activation as determined by IL-17A release after stimulation with thapsigargin. Addition of thapsigargin results in activation of a signalling cascade ending up in activation of T cell proliferation and cytokine production where the Kv1.3 ion channel plays a key role, so activity of Kv1.3 inhibitors in primary cells can be measured in this experimental system.
Rat whole blood was obtained from healthy, naïve Lewis or Sprague-Dawley rats that were terminally bleed from the heart using Sodium Heparin blood sampling tubes for collection. Peptides were diluted to 4× final testing concentrations in assay buffer (DMEM+GlutaMAX), GlutaMAX is a medium comprising 3.97 mM L-alanine-L-glutamine (Gibco Cat #61965026) supplemented with 25 mM HEPES buffer, 1 mM Sodium Pyruvate, 100 units/ml Penicillin, 100 μg/ml Streptomycin and 0.05% Casein from bovine milk (Sigma-Aldrich)) and 25 μl was added to wells of a 96 well plate. Then 50 μl whole rat blood was added and incubated for minimum 5 minutes at room temperature to allow compound binding. Then 25 μl 40 μM thapsigargin diluted in assay buffer was added to all wells of the assay plates to activate the cells, followed by incubation for 24 Hr at 37° C./5% CO2 in a humidified box. The assay plates were centrifuged for 10 min at 300 g at 4° C. and the supernatants were transferred to new plates. The concentrations of IL-17A released to the supernatants were measured using a Rat IL-17A ELISA Kit (Abcam Cat #ab214028) as recommended by the manufacturer. Samples were diluted 2.5-fold by transferring 20 μl of the supernatants to wells on ELISA plates containing 30 μl buffer 75BS from the detection kit.
Data from peptides eliciting an inhibition of IL-17A were normalised relative to full thapsigargin activation (no inhibitor added) and no activation controls (addition of assay buffer instead of thapsigargin) to calculate the IC50 from the concentration response curve.
Results are shown in Table 5, expressed as IC50, with standard deviation (IC50_SD). All values are derived from at least 2 replicates. The biological effects ex vivo show a correlation with the potency of the peptides.

The target of another assay is T1, Kv1.3 (Homo sapiens, UniProt P22001).
T1 construct: expressed in transfected cells
T1 sequence (P22001 whole entry): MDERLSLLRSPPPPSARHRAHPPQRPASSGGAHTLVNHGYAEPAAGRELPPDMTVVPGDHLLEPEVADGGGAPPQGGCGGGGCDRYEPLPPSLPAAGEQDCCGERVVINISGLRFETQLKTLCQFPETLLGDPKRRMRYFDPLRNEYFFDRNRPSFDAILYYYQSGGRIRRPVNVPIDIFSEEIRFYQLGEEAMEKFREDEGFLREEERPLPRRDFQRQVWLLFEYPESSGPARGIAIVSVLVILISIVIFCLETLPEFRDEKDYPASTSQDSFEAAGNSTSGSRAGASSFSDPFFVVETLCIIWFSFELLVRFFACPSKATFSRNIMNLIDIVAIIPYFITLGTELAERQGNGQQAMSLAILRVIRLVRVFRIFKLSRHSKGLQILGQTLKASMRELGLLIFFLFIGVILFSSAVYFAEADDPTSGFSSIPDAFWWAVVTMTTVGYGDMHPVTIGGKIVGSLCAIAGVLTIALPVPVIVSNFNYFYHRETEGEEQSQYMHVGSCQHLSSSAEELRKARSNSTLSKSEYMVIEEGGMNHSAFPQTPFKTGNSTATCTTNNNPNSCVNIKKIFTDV
Kind of assay: Patch clamp assay (QPatch), Kv1.3. As to conditions: CHO cells stably expressing human Kv1.3, read-out: Potency IC50, Kv1.3. The format is cell-based. A general note: In patch-clamp work, channel activity is measured electrically.

In another assay the target is T2, Kv1.1 (Homo sapiens, UniProt Q09470).
T2 construct: expressed in transfected cells
T2 sequence (Q09470 whole entry): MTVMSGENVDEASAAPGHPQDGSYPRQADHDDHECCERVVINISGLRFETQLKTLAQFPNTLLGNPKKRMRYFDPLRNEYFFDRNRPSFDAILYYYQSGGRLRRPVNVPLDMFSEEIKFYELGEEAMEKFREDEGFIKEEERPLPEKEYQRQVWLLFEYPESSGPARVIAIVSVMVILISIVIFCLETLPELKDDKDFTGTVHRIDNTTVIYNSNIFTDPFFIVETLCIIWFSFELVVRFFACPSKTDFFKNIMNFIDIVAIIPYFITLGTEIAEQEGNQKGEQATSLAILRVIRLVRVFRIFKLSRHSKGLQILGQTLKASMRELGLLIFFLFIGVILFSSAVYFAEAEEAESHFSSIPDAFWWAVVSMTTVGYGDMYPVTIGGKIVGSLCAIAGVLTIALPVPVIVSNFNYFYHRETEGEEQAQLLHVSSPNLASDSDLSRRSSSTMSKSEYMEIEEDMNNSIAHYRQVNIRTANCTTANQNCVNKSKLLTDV
Kind of assay: Patch clamp assay (QPatch), Kv1.1. The format is cell-based. As to conditions: for pIC50: QPatch, CHO cells stably expressing human Kv1.1, read-out: Potency IC50, Kv1.1; for Selectivity Kv1.1/Kv1.3: ratio of IC50 Kv1.1/Kv1.3.

For another assay, the target named is T3, Kv1.2 (Homo sapiens, UniProt P16389).
T3 construct: expressed in transfected cells
T3 sequence (P16389 whole entry): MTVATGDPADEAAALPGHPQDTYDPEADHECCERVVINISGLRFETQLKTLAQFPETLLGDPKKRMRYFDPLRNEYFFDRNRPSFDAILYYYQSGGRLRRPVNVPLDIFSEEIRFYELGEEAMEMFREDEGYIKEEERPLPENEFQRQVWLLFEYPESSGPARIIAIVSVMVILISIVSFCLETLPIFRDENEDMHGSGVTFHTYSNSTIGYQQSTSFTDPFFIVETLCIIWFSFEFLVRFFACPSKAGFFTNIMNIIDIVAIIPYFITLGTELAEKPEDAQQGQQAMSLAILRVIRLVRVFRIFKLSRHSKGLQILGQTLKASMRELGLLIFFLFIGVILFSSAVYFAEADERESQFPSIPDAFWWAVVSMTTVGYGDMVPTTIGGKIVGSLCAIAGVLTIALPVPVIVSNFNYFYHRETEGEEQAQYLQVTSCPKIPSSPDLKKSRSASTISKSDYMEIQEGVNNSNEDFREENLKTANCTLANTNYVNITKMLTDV
Kind of assay: Patch clamp assay (QPatch), Kv1.2. The format is cell-based. As to conditions: for pIC50: QPatch, CHO cells stably expressing human Kv1.2, read-out: Potency IC50, Kv1.2; for Selectivity Kv1.2/Kv1.3: ratio of IC50 Kv1.2/Kv1.3.

A further assay concerns the target T4, Kv1.6 (Homo sapiens, UniProt P17658).
T4 construct: expressed in transfected cells
The assay can be described thus: Patch clamp assay (QPatch), Kv1.6. The assay is classed as cell-based. To be noted: for pIC50: QPatch, CHO cells stably expressing human Kv1.6, read-out: Potency IC50, Kv1.6; for Selectivity Kv1.6/Kv1.3: ratio of IC50 Kv1.6/Kv1.3.

pIC50: −log10 of the molar value.

T4 sequence (P17658 whole entry): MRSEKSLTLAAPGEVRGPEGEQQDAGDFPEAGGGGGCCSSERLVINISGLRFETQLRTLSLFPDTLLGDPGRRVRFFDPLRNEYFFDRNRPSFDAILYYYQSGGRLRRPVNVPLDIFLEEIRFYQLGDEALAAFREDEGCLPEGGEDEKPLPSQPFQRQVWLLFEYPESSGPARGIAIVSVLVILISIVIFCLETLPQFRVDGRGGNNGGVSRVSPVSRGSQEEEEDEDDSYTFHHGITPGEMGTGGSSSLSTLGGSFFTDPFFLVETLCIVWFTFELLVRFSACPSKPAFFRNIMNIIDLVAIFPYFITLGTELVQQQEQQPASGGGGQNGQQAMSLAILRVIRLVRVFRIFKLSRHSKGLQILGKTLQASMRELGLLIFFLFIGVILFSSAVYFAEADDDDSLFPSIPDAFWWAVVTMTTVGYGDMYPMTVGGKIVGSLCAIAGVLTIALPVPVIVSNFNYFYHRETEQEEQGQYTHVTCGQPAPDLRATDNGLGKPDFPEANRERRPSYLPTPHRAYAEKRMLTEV
Protocol for Kv1.1: (§1) Selectivity of Kv1.3 inhibitor peptides for Kv1.3 over other potassium ion channels (Kv1.1, Kv1.2 and Kv1.6) was determined using patch clamp assay.
(§2) Chinese Hamster Ovary (CHO) cell lines stably expressing exogenous human α-subunits of each potassium ion channel were grown and passaged under standard culture conditions.
(§3) The automated, chip-based planar patch clamp device QPatch® was used to quantitate the ionic currents. All recordings were made in the conventional whole-cell configuration after establishment of gigaohm seals. […] During experiments 0.1% (v/v) BSA was included as a vehicle in all external recording solutions. Currents were elicited from a holding potential of −80 mV using a voltage protocol, which shifted the voltage to 30 mV for 500 ms every 15 s.
(§4) Concentration-response relationships were established by cumulatively applying seven escalating concentrations of test sample to an individual cell with a recording period of 2 min per compound application.
(§5) The efficacy was determined as the mean charge for the last three sweeps at the end of each concentration application period from the cursor positions. The percent inhibition for each test dose application period was calculated as the reduction in mean cursor value (charge) relative to the cursor value measured at the end of the vehicle period and used to calculate the IC50 from the concentration response curve.
Protocol for Kv1.3: as §1, §2, §3, §4, §5

For “H-S[Nle]D[Nle]RC(1)SA[Abu]VEC(2)KQKC(3)LKAIGSIFGKC(1)MNKKC(2)KC(3)YPR-NH2 [Peptide 70]”, in assay [1], the pIC50 (commonly the negative decadic logarithm of the IC50, by convention in mol/L) was 9.03.

Regarding “H-LRC(1)SASVEC(2)KQKC(3)LKAIGSIFGKC(1)[Nle]NKKC(2)KC(3)YPR-OH [Peptide 115]”, the pIC50 in assay [1] is 8.68.

“H-C(1)SASVEC(2)KQKC(3)LKAIGC(4)IFGKC(1)[Nle]NKKC(2)KC(3)YPC(4)-NH2 [Peptide 89]”: the pIC50 in assay [1] is 8.96.

For “H-NMDMRC(1)SASVEC(2)KQKC(3)LKYIGSIFGKC(1)MNKKC(2)KC(3)YPR-NH2 [Peptide 56]”, the pIC50 on Kv1.3 was 9.92.

With “H-NMEMRC(1)SASVEC(2)KQKC(3)LKAIGSIFGKC(1)MNKKC(2)KC(3)YPR-OH [Peptide 13]”, the pIC50 on Kv1.3 was 9.96. On Kv1.1, the pIC50 was less than 5.52 and the “Selectivity Kv1.1/Kv1.3” value is reported as more than 27600. Further, on Kv1.2, the pIC50 was 6.64 and the “Selectivity Kv1.2/Kv1.3” value worked out at 2093. On Kv1.6, the negative logarithm of the IC50 (pIC50) is less than 5.52 and the “Selectivity Kv1.6/Kv1.3” value is given as more than 27600.

With “H-P[Nle]D[Nle]RC(1)SASVEC(2)AQKC(3)LAAIGSIFGKC(1)MNKKC(2)KC(3)YPR-OH [Peptide 106]”, the pIC50 in assay [1] is 9.49.

In the case of “H-P[Nle]D[Nle]RC(1)SASVEC(2)KQKC(3)LKAIGC(4)IFGKC(1)[Nle]NKKC(2)KC(3)YPC(4)-OH [Peptide 86]”, the pIC50 in assay [1] was 8.96.

On to “H-S[Nle]D[Nle]RC(1)SASVEC(2)KQKC(3)LKAIGSIFGKC(1)MNKKC(2)KC(3)[F(4-CH3)]PR-NH2 [Peptide 96]”, for which, in assay [1], the pIC50 was 9.27.

Regarding “H-S[Nle]D[Nle]RC(1)SASVEC(2)KQKC(3)LKAIGSIFGKC(1)[Nle]NKKC(2)KC(3)YPR-OH [Peptide 68]”, the pIC50 in assay [1] is 9.28.

“H-N[Nle]D[Nle]RC(1)SASVEC(2)EQKC(3)LKAIGSIFGKC(1)[Nle]NKKC(2)KC(3)YPR-NH2 [Peptide 44]”: the pIC50 in assay [1] is 9.00.

Consider “H-PIDERC(1)SASVEC(2)KQKC(3)LAAIGSIFGKC(1)[Nle]NKKC(2)KC(3)YPR-OH [Peptide 104]”, for which the pIC50 in assay [1] was 9.06.

Take “H-S[Nle]D[Nle]RC(1)SASVEC(2)KQKC(3)LKAIGSIFGKC(1)MNKKC(2)KC(3)YQ-NH2 [Peptide 76]”: the pIC50 in assay [1] is 8.80.

Turning to “H-NMDMRC(1)SASVEC(2)KQKC(3)LKAIHSIFGKC(1)MNKKC(2)KC(3)YPR-NH2 [Peptide 34]”, the pIC50 in assay [1] was 9.15.

As for “H-NMDMRC(1)SASVEC(2)KQKC(3)LKAYGSIFGKC(1)MNKKC(2)KC(3)YPR-NH2 [Peptide 59]”, the pIC50 on Kv1.3 is 9.47. Moreover, on Kv1.1, the pIC50 was less than 5.52 and the “Selectivity Kv1.1/Kv1.3” value was more than 8800. In addition, at Kv1.2, the pIC50 was 6.84 and the “Selectivity Kv1.2/Kv1.3” value stood at 426. Moreover, at Kv1.6, the pIC50 is less than 5.52 and the “Selectivity Kv1.6/Kv1.3” value was more than 8800.

“H-S[Nle]D[Nle]RC(1)SASVEC(2)KQKC(3)LVAIGSIFGKC(1)MNKKC(2)KC(3)YPR-NH2 [Peptide 80]”: the pIC50 in assay [1] is 9.41.

With “H-S[Nle]D[Nle]RC(1)SASVEC(2)K[2-Amino-5-carboxypentanoyl]KC(3)LKAIGSIFGKC(1)MNKKC(2)KC(3)YPR-NH2 [Peptide 75]”, the negative-log IC50 (pIC50) in assay [1] is 9.28.

“H-P[Nle]E[Nle]RC(1)[2-Amino-3-guanidinopropionyl]ASVEC(2)KQKC(3)LAAIGSIFGKC(1)[Nle]NKKC(2)KC(3)YPR-OH [Peptide 91]”: the negative logarithm of the IC50 (pIC50) on Kv1.3 was 10.19. Further, on Kv1.1, the pIC50 was less than 5.52 and the “Selectivity Kv1.1/Kv1.3” value is more than 46000. Besides, on Kv1.2, the pIC50 was 6.42 and the “Selectivity Kv1.2/Kv1.3” value turned out to be 6000. For the same substance, at Kv1.6, the pIC50 is less than 5.52 and the “Selectivity Kv1.6/Kv1.3” value is on record as more than 46000.

Take “H-N[Nle]D[Nle]RC(1)SASVEC(2)KQKC(3)LKAIGSIFGKC(1)MNKKC(2)KC(3)YPR-NH2 [Peptide 40]”: the pIC50 on Kv1.3 was 9.82.

Consider “H-QMDMRC(1)SASVEC(2)KQKC(3)LKAIGRGFGKC(1)MNKKC(2)KC(3)YPR-OH [Peptide 2]”, for which, at Kv1.3, the pIC50 was 8.82. In addition, on Kv1.1, the pIC50 was less than 5.52 and the “Selectivity Kv1.1/Kv1.3” value is more than 2000. Also, on Kv1.2, the pIC50 was 7.01 and the “Selectivity Kv1.2/Kv1.3” value came out at 65. Also, on Kv1.6, the pIC50 is 5.74 and the “Selectivity Kv1.6/Kv1.3” value worked out at 1204.

For the substance “H-S[Nle]D[Nle]RC(1)SASVEC(2)AQKC(3)LAAIGSIFGKC(1)MNKKC(2)KC(3)YPR-NH2 [Peptide 82]”, on Kv1.3, the pIC50 was 9.80.

In the case of “H-NMDMRC(1)SASVEC(2)KQKC(3)YKAIGSIFGKC(1)MNKKC(2)KC(3)YPR-NH2 [Peptide 51]”, the pIC50 at Kv1.3 was 9.57.

As for “H-P[Nle]E[Nle]RC(1)[2,4-Diaminobutanoyl]ASVEC(2)KQKC(3)LAAIGSIFGKC(1)[Nle]NKKC(2)KC(3)YPR-OH [Peptide 84]”, the pIC50 at Kv1.3 is 10.55; on Kv1.1, less than 5.52; on Kv1.2 it was 6.32; at Kv1.6 it was less than 5.52. Moreover, the “Selectivity Kv1.1/Kv1.3” value at Kv1.1 is listed as more than 100000. Also, on Kv1.2, the “Selectivity Kv1.2/Kv1.3” value is reported as 17000. Besides, the “Selectivity Kv1.6/Kv1.3” value on Kv1.6 is more than 100000.

For the substance “H-P[Nle]D[Nle]RC(1)SASVEC(2)KEKC(3)L[homo-Gln]AIGSIFGKC(1)[Nle]NKKC(2)KC(3)YPR-NH2 [Peptide 88]”, the pIC50 in assay [1] was 8.85.

On to “H-S[Nle]D[Nle]RC(1)SASVEC(2)KQKC(3)LKAIGSIFG[homo-Lys]C(1)MNKKC(2)KC(3)YPR-NH2 [Peptide 71]”, for which the pIC50 in assay [1] is 8.57.

As to “H-N[Nle]D[Nle]RC(1)SASVEC(2)QQKC(3)LKAIGSIFGKC(1)[Nle]NKKC(2)KC(3)YPR-NH2 [Peptide 45]”, in assay [1], the pIC50 was 8.96.

As for “Ac-LRC(1)SASVEC(2)KQKC(3)LAAIGSIFGKC(1)MNKKC(2)KC(3)YPR-OH [Peptide 123]”, in assay [1], the pIC50 is 9.44.

Take “H-S[Nle]D[Nle]RC(1)SASVEC(2)KQKC(3)LAAIGC(4)IFGKC(1)[Nle]NKKC(2)KC(3)YPC(4)-NH2 [Peptide 90]”: the pIC50 in assay [1] is 9.14.

Regarding “H-S[Nle]D[Nle]RC(1)SASVEC(2)KQKC(3)LKAIGSIFGKC(1)MNKKC(2)KC(3)[F(4-NO2)]PR-NH2 [Peptide 95]”, the pIC50 in assay [1] was 8.89.

Consider “H-RSCIDTIPKSRCTAFQCKHSMKYRLSFCRKTCGTC-OH [ShK, reference compound]”, for which the values for the pIC50 on Kv1.2 and at Kv1.6 were 7.96 and 9.72, respectively.

“Ac-LRC(1)SASVEC(2)KQKC(3)LAAIGSIFGKC(1)[Nle]NKKC(2)KC(3)YPR-OH [Peptide 122]”: the pIC50 in assay [1] is 9.05.

Regarding “H-S[Nle]D[Nle]RC(1)SASVEC(2)KEKC(3)LQAIGSIFGKC(1)[Nle]NKKC(2)KC(3)YPR-NH2 [Peptide 87]”, the pIC50 in assay [1] is 9.16.

In the case of “H-NMDMRC(1)SASVEC(2)KQKC(3)LKAIGSIFGKC(1)MNKKC(2)VC(3)YPR-NH2 [Peptide 39]”, in assay [1], the pIC50 is 8.55.

Regarding “H-NMDMRC(1)SASVEC(2)KQKC(3)RKAIGSIFGKC(1)MNKKC(2)KC(3)YPR-NH2 [Peptide 52]”, on Kv1.3, the pIC50 was 9.60.

In the case of “H-P[Nle]E[Nle]RC(1)SASVEC(2)KQKC(3)LLAIGSIFGKC(1)[Nle]NKKC(2)KC(3)YPR-OH [Peptide 103]”, the pIC50 in assay [1] was 9.30.

For the substance “H-S[Nle]D[Nle]RC(1)SASVEC(2)KQKC(3)LKAIGSIFGKC(1)MNKKC(2)KC(3)[F(4-F)]PR-NH2 [Peptide 94]”, in assay [1], the pIC50 is 9.47.

For “H-S[Nle]D[Nle]RC(1)SASVEC(2)VQKC(3)LKAIGSIFGKC(1)MNKKC(2)KC(3)YPR-NH2 [Peptide 74]”, the pIC50 in assay [1] is 9.33.
